One block for each compound: values may come before it.
How the values were obtained:
[1] = Stability of powder mixtures of amorphous calcium L-5-methylfolate with stabilizing agents (1:10) on storage; format: physicochemical; settings: 5° C. for one month; ALC:stabilizing agent 1:10
Procedure: Powder mixtures of amorphous calcium L-5-methylfolate with each of the stabilizing agents disclosed in the following table were prepared. In all the cases, the mixture contained a weight amount of calcium L-5-methylfolate to stabilizing agent of 1:10.

[2] = Stability of amorphous calcium L-5-methylfolate and cysteine at weight ratios 1:0 to 1:33 on storage; format: physicochemical
[3] = storage time of one month at 40° C.; cited from earlier work

Assay (%) of Calcium L-5-methylfolate that remains in the mixture [1]: 91.02%
Related substances (%) D-Mefox [1]: 0.50%
Related substances (%) HO-MeTHFA [1]: 1.18%
Related substances (%) L-Mefox [1]: 4.27%
Related substances (%) TOTAL impurities [1]: 8.0%
Assay (%) ([2]; 5° C. for 1 month): 99.59%
Related substances (%) D-Mefox ([2]; 5° C. for 1 month): 0.42%
Related substances (%) HO-MeTHFA ([2]; 5° C. for 1 month): 1.80%
Related substances (%) L-Mefox ([2]; 5° C. for 1 month): 2.52%
Related substances (%) TOTAL impurities ([2]; 5° C. for 1 month): 5.59%
Assay (%) ([2]; 5° C. for 3 months): 96.39%
Related substances (%) D-Mefox ([2]; 5° C. for 3 months): 0.32%
Related substances (%) HO-MeTHFA ([2]; 5° C. for 3 months): 1.34%
Related substances (%) L-Mefox ([2]; 5° C. for 3 months): 2.74%
Related substances (%) TOTAL impurities ([2]; 5° C. for 3 months): 5.74%
Assay (%) ([2]; 25° C./60% HR for 1 month): 89.13%
Related substances (%) D-Mefox ([2]; 25° C./60% HR for 1 month): 0.71%
Related substances (%) HO-MeTHFA ([2]; 25° C./60% HR for 1 month): 1.75%
Related substances (%) L-Mefox ([2]; 25° C./60% HR for 1 month): 4.68%
Related substances (%) TOTAL impurities ([2]; 25° C./60% HR for 1 month): 9.19%
Assay (%) ([2]; 25° C./60% HR for 3 months): 84.03%
Related substances (%) D-Mefox ([2]; 25° C./60% HR for 3 months): 0.57%
Related substances (%) HO-MeTHFA ([2]; 25° C./60% HR for 3 months): 1.44%
Related substances (%) L-Mefox ([2]; 25° C./60% HR for 3 months): 6.49%
Related substances (%) TOTAL impurities ([2]; 25° C./60% HR for 3 months): 11.95%
Assay (%) ([2]; 40° C./75% HR for 1 month): 81.95%
Related substances (%) D-Mefox ([2]; 40° C./75% HR for 1 month): 0.93%
Related substances (%) HO-MeTHFA ([2]; 40° C./75% HR for 1 month): 1.84%
Related substances (%) L-Mefox ([2]; 40° C./75% HR for 1 month): 8.97%
Related substances (%) TOTAL impurities ([2]; 40° C./75% HR for 1 month): 15.57%
SMILES: CN1c2c(nc(N)[nH]c2=O)NC[C@@H]1CNc1ccc(C(=O)N[C@@H](CCC(=O)[O-])C(=O)[O-])cc1.[Ca+2] [Amorphous Calcium L-5-methylfolate (ALC), N-{4-[[((6S)-2-amino-1,4,5,6,7,8-hexahydro-5-methyl-4-oxo-6-pteridinyl)methyl]amino]benzoyl}-L-glutamic acid, calcium salt]

SMILES: CN1c2c(nc(N)[nH]c2=O)NC[C@@H]1CNc1ccc(C(=O)N[C@@H](CCC(=O)[O-])C(=O)[O-])cc1.[Ca+2] [Metafolin, Calcium L-5-methylfolate]
Metafolin that remains in the compositions obtained by granulation [3]: 60%

Reference: patent US20160045440A1, “FORMULATION OF AMORPHOUS CALCIUM L-5-METHYLTETRAHYDROFOLATE (L-5-MTHF-Ca)” (CHEMO RESEARCH, S.L., priority 2013, published 2016)
